Counter-ions that a name gives are not always drawn.

One may read the IC50 as the concentration needed to halve the response being measured.

The target in the test is T1, recombinant human arginase 1 (Homo sapiens, UniProt P05089).
T1 sequence (P05089 1-322): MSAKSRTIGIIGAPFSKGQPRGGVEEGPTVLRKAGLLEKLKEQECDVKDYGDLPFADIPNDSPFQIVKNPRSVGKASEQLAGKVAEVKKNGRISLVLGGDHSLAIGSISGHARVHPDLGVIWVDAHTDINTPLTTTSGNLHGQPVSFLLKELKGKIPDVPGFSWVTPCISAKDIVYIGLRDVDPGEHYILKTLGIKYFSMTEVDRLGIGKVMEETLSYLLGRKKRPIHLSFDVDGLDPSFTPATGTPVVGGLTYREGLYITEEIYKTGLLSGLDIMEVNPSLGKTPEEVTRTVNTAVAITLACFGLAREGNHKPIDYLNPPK
Description: Arginase inhibitory activity test, enzymatic assay based on urea measurement (Arg 1).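 Further: enzyme incubated with L-arginine substrate and compound at 37 °C for 120 min, urea product detected colorimetrically by absorbance at 450 nm, background from wells lacking enzyme.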
Description: An enzymatic assay with recombinant human arginases 1 or 2 was used to measure inhibitory activity of the compounds. The assay is based on urea measurement, which is a product of L-arginine enzymatic degradation.
Briefly, arginase and the substrate solution containing L-arginine were incubated in the absence or presence of varying concentrations of compounds at 37° C. for 120 min. For the background correction, only the substrate solution was added without arginase. The urea detection reagent from QuantiChrome™ Urea assay kit (BioAssay Systems, CA) was added to develop the color product. After 60 min at room temperature, the absorbance was measured at 450 nm with CLARIOstar (BMG LABTECH). Urea was used as the standard.
For the compound `N[C@H]1CC1NS(=O)(=O)N1C[C@H](CCCB(O)O)[C@](N)(C(=O)O)C1` (relative stereo) [Example 40, (3R,4S)-3-amino-1-(N-((cis)-2-aminocyclopropyl)sulfamoyl)-4-(3-boronopropyl)pyrrolidine-3-carboxylic acid, 2,2,2-trifluoroacetic acid salt (1:2)], the IC50 is 100 to 1000 nM. As for `CN(CCN)S(=O)(=O)N1C[C@H](CCCB(O)O)[C@](N)(C(=O)O)C1` [Example 27, (3R,4S)-3-amino-1-(N-(2-aminoethyl)-N-methylsulfamoyl)-4-(3-boronopropyl)pyrrolidine-3-carboxylic acid, 2,2,2-trifluoroacetic acid salt (1:2)], the IC50 is < 100 nM. Under `NCCNc1c(N2C[C@H](CCCB(O)O)[C@](N)(C(=O)O)C2)c(=O)c1=O` [Example 28, (3R,4S)-3-amino-1-(2-((2-aminoethyl)amino)-3,4-dioxocyclobut-1-en-1-yl)-4-(3-boronopropyl)pyrrolidine-3-carboxylic acid, 2,2,2-trifluoroacetic acid salt (1:2)] stands < 100 nM; under `CN(CCN)c1c(N2C[C@H](CCCB(O)O)[C@](N)(C(=O)O)C2)c(=O)c1=O` [Example 29, (3R,4S)-3-amino-1-(2-((2-aminoethyl)(methyl)amino)-3,4-dioxocyclobut-1-en-1-yl)-4-(3-boronopropyl)pyrrolidine-3-carboxylic acid, 2,2,2-trifluoroacetic acid salt (1:2)], < 100 nM; under `CC(C)N(C1CNC1)S(=O)(=O)N1C[C@H](CCCB(O)O)[C@](N)(C(=O)O)C1` [Example 57, (3R,4S)-3-amino-1-(N-(azetidin-3-yl)-N-isopropylsulfamoyl)-4-(3-boronopropyl)pyrrolidine-3-carboxylic acid, 2,2,2-trifluoroacetic acid salt (1:2)], < 100 nM.

In the case of `CC(NS(=O)(=O)N1C[C@H](CCCB(O)O)[C@](N)(C(=O)O)C1)C1(N)CC1` (stereo partly drawn) [Example 58, (3R,4S)-3-amino-1-(N-(1-(1-aminocyclopropyl)ethyl)sulfamoyl)-4-(3-boronopropyl)pyrrolidine-3-carboxylic acid, 2,2,2-trifluoroacetic acid salt (1:2)], the IC50 is 100 to 1000 nM. To `CCCN(C1CNC1)S(=O)(=O)N1C[C@H](CCCB(O)O)[C@](N)(C(=O)O)C1` [Example 59, (3R,4S)-3-amino-1-(N-(azetidin-3-yl)-N-propylsulfamoyl)-4-(3-boronopropyl)pyrrolidine-3-carboxylic acid, 2,2,2-trifluoroacetic acid salt (1:2)] belongs < 100 nM; to `CC(C)CN(C1CNC1)S(=O)(=O)N1C[C@H](CCCB(O)O)[C@](N)(C(=O)O)C1` [Example 60, (3R,4S)-3-amino-1-(N-(azetidin-3-yl)-N-isobutylsulfamoyl)-4-(3-boronopropyl)pyrrolidine-3-carboxylic acid, 2,2,2-trifluoroacetic acid salt (1:2)], < 100 nM. Under `CCCCN(C1CNC1)S(=O)(=O)N1C[C@H](CCCB(O)O)[C@](N)(C(=O)O)C1` [Example 61, (3R,4S)-3-amino-1-(N-(azetidin-3-yl)-N-butylsulfamoyl)-4-(3-boronopropyl)pyrrolidine-3-carboxylic acid, 2,2,2-trifluoroacetic acid salt (1:2)] stands < 100 nM; under `N[C@@]1(C(=O)O)CN(S(=O)(=O)N(Cc2ccccc2)C2CNC2)C[C@@H]1CCCB(O)O` [Example 62, (3R,4S)-3-amino-1-(N-(azetidin-3-yl)-N-benzylsulfamoyl)-4-(3-boronopropyl)pyrrolidine-3-carboxylic acid, 2,2,2-trifluoroacetic acid salt (1:2)], < 100 nM; under `N[C@@]1(C(=O)O)CN(S(=O)(=O)N(CC2CC2)C2CNC2)C[C@@H]1CCCB(O)O` [Example 63, (3R,4S)-3-amino-1-(N-(azetidin-3-yl)-N-(cyclopropylmethyl)sulfamoyl)-4-(3-boronopropyl)pyrrolidine-3-carboxylic acid, 2,2,2-trifluoroacetic acid salt (1:2)], < 100 nM. Under `N[C@@]1(C(=O)O)CN(S(=O)(=O)N(c2ccccc2)C2CNC2)C[C@@H]1CCCB(O)O` [Example 64, (3R,4S)-3-amino-1-(N-(azetidin-3-yl)-N-phenylsulfamoyl)-4-(3-boronopropyl)pyrrolidine-3-carboxylic acid, 2,2,2-trifluoroacetic acid salt (1:2)] stands < 100 nM. As to `CCN(CC1(N)CC1)S(=O)(=O)N1C[C@H](CCCB(O)O)[C@](N)(C(=O)O)C1` [Example 65, (3R,4S)-3-amino-1-(N-((1-aminocyclopropyl)methyl)-N-ethylsulfamoyl)-4-(3-boronopropyl)pyrrolidine-3-carboxylic acid, 2,2,2-trifluoroacetic acid salt (1:2)], the IC50 was in the range of 1000 to 10000 nM. Under `N[C@@]1(C(=O)O)CN(S(=O)(=O)N(CC(F)(F)F)C2CNC2)C[C@@H]1CCCB(O)O` [Example 66, (3R,4S)-3-amino-1-(N-(azetidin-3-yl)-N-(2,2,2-trifluoroethyl)sulfamoyl)-4-(3-boronopropyl)pyrrolidine-3-carboxylic acid, 2,2,2-trifluoroacetic acid salt (1:2)] stands < 100 nM.

With `NCCN(CC1CC1)S(=O)(=O)N1C[C@H](CCCB(O)O)[C@](N)(C(=O)O)C1` [Example 67, (3R,4S)-3-amino-1-(N-(2-aminoethyl)-N-(cyclopropylmethyl)sulfamoyl)-4-(3-boronopropyl)pyrrolidine-3-carboxylic acid, 2,2,2-trifluoroacetic acid salt (1:2)], the IC50 was < 100 nM. To `NC1(CN(CC2CC2)S(=O)(=O)N2C[C@H](CCCB(O)O)[C@](N)(C(=O)O)C2)CC1` [Example 68, (3R,4S)-3-amino-1-(N-((1-aminocyclopropyl)methyl)-N-(cyclopropylmethyl)sulfamoyl)-4-(3-boronopropyl)pyrrolidine-3-carboxylic acid, 2,2,2-trifluoroacetic acid salt (1:2)] belongs < 100 nM; to `NC1CC1N(CC1CC1)S(=O)(=O)N1C[C@H](CCCB(O)O)[C@](N)(C(=O)O)C1` (stereo partly drawn) [Example 69, (3R,4S)-3-amino-1-(trans-N-(2-aminocyclopropyl)-N-(cyclopropylmethyl)sulfamoyl)-4-(3-boronopropyl)pyrrolidine-3-carboxylic acid, 2,2,2-trifluoroacetic acid salt (1:2)], < 100 nM.

Take `N[C@@]1(C(=O)O)CN(S(=O)(=O)N(CC2CC2)[C@@H]2CCNC2)C[C@@H]1CCCB(O)O` [Example 70, (3R,4S)-3-amino-4-(3-boronopropyl)-1-(N-(cyclopropylmethyl)-N-((R)-pyrrolidin-3-yl)sulfamoyl)pyrrolidine-3-carboxylic acid, 2,2,2-trifluoroacetic acid salt (1:2)]: the IC50 was < 100 nM. Take `N[C@@]1(C(=O)O)CN(S(=O)(=O)N(CC2CC2)[C@H]2CCNC2)C[C@@H]1CCCB(O)O` [Example 71, (3R,4S)-3-amino-4-(3-boronopropyl)-1-(N-(cyclopropylmethyl)-N-((S)-pyrrolidin-3-yl)sulfamoyl)pyrrolidine-3-carboxylic acid, 2,2,2-trifluoroacetic acid salt (1:2)]: the IC50 was < 100 nM.
